Measurements taken from patent US10464957B2, “Oxidized lipids and methods of use thereof” (Vascular Biogenics Ltd., priority 2014, dated 2019).

What was measured:
[1] = system: MCP-1-induced signaling in human monocytes (THP-1 cell line); test: MCP-1-induced signaling, western blot; format: cell-based; conditions: 20 min pretreatment, 50 ng/ml MCP1, THP-1
Procedure: THP-1 cells (10^6/ml) were pretreated for 20 min with VB-201 or VB-701 at the doses indicated in FIG. 4, or with solvent, followed by activation with 50 ng/ml MCP1, or were untreated (“Unt”). Cells were washed and resuspended in lysis buffer containing 1:100 dithiothreitol (DTT), phosphatase and protease inhibitors (Thermo Scientific). Samples were loaded onto a precast Criterion TGX gel (Bio-Rad, Hemel Hempstead, UK) and transferred onto nitrocellulose membrane. Blots were blocked with 5% milk or BSA in Tris buffered saline and Tween 20 (TBST) for 1 h, followed by incubation with primary and secondary antibodies. Membranes were developed using an ECL kit (Thermo Scientific). The following antibodies were used for immunoblotting:
Primary antibodies: p-ERK1/2 (Cat. No. M8159; 1:10000) was purchased from Sigma (Israel). p-AKT (Cat. No. 4060; 1:1000) was purchased from Cell Signaling Technology (Danvers, Mass.). αTubulin served as a loading control and was purchased from Sigma (Israel).
Secondary antibodies: HRP donkey anti-rabbit (1:5000) and HRP goat anti-mouse (1:3000) were from Jackson ImmunoResearch (West Grove, Pa., USA). HRP donkey anti-goat (1:5000) was from Santa Cruz Biotechnology.

[2] = system: human monocytes (primary CD14+); test: Chemokine-induced cell migration trans-well assay; format: cell-based; conditions: RANTES 100 ng/ml and MCP-1 50 ng/ml, 2-4 hours, FACS count
Procedure: Venous blood samples were obtained from healthy male donors in compliance with the Institutional Review Board at the Sheba Medical Center, Ramat Gan, Israel. PBMCs were isolated on Ficoll-Paque PLUS (GE Healthcare, Uppsala, Sweden) using 50 ml Leucosep tubes (Greiner Bio-One, Frickenhausen, Germany). Cells were washed in PBS (Kibbutz Beit Haemek, Israel) and incubated at 4° C. for 15 minutes in a buffer containing PBS and 0.5% bovine serum albumin (BSA) with human CD14 microbeads (Miltenyi Biotec, Bergisch Gladbach, Germany).
Cells (10^6/ml) were pretreated for 20 min with VB-201 or VB-701 at the doses indicated in FIG. 5, or with solvent (Sol).
To test for chemokine-induced cell migration, RANTES (100 ng/ml; Cat. No. 300-06, PeproTech, Israel) and MCP-1 (50 ng/ml; Cat. No. 300-04, PeproTech, Israel) were dissolved in RPMI-1640 medium supplemented with 0.5% fetal bovine serum (FBS) and placed at the lower chamber of QCM 24-well, […], migration assay plates (Corning-Costar, Corning, N.Y.). Cells (3×10^5) were seeded in the upper chamber and incubated for 2-4 hours. Subsequently, the number of cells which migrated to the lower compartment was determined by fluorescence-activated cell sorting (FACS).

[3] = system: LPS (TLR4)-stimulated human monocytes (primary CD14+); test: IL-12/23p40 ELISA, LPS (TLR4)-stimulated monocytes; format: cell-based; conditions: 1 hour pretreatment, 24 hour 100 ng/ml LPS, ELISA of supernatant
Procedure: Human monocytes were obtained as described in Example 9 and FIG. 9A-9B. Human monocytes were seeded (10^6/ml) and pretreated for 1 hour with VB-201, VB-701 or VB-702, followed by 24 hour activation with 100 ng/ml LPS from Escherichia coli strain 055:B5 (Sigma, Israel) (FIG. 9A) or 300 ng/ml Pam3CSK4 (InvivoGen, San Diego, Calif., USA) (FIG. 9B) to induce cytokine production. IL-12/23p40 concentration in the supernatant was then measured by ELISA (R&D systems, Cat. No. DY1240). Cells activated with solvent (0.5% ethanol in PBS) were used as a control.

NASH-induced mice = test: NASH and liver fibrosis mouse model (STZ + HFD), liver histology; format: in vivo
Procedure: (§1) Neonatal male mice exposed to low-dose streptozotocin (STZ) develop liver steatosis with diabetes. Continuous high fat diet (HFD) increases lobular inflammation with foam cell-like macrophages, showing nonalcoholic steatohepatitis (NASH) pathology. NASH was induced in 40 male mice by a single subcutaneous injection of 200 μg per mouse of STZ two days after birth and feeding HFD [57 kcal % fat]) from four weeks of age. Vehicle, VB-703 (4 mg/kg), or telmisartan (10 mg/kg) as positive control, were administered once daily for three weeks, starting from six weeks of age. Mice were sacrificed at nine weeks of age.
Liver pathology was used to determine the effect of VB-703 on liver inflammation and fibrosis. Histology slides were stained with hematoxylin/eosin (H&E) to assess inflammation. The inflammation score was determined as follows:
Histology slides were stained with Sirius red to determine collagen content as a marker for the extent of fibrosis.

[4] = system: livers taken from NASH-induced mice; test: Q-PCR of inflammation mediators in livers of NASH-induced mice; format: in vivo; conditions: VB-703 4 mg/kg, Q-PCR normalized to GAPDH
Procedure: as §1
RNA was prepared from livers from normal mice and NASH-induced mice treated with vehicle, VB-703, or telmisartan, using RNeasy mini kit (Qiagen). For cDNA preparation, 2 μg of RNA was combined with qScript reaction mix and qScript Reverse Transcriptase (Quanta BioSciences) for 5 min at 22° C. and then for 30 min at 42° C. Reaction was ended by incubation for an additional 5 min at 85° C. All real time PCR reactions were performed using the 7300 Real Time PCR System (Applied Biosystems). Q-PCR with mouse ready set of probe with primer was used for IL-1β, IL-12/23p40 and MCP-1 (Applied Biosystems). GAPDH was used to normalize RNA levels.

[5] = system: kidney of nephrectomized rats; test: Real-time PCR of pro-fibrotic markers in kidney of nephrectomized rats; format: in vivo, Sprague Dawley (SD) Rats
Procedure: Kidney RNA was extracted with an RNeasy Fibrous Tissue Mini kit (Qiagen) and after DNAse I treatment, single-stranded cDNA was synthesized from 2 μg total RNA using the qScript cDNA Synthesis Kit (Quanta Biosciences) and diluted for real-time PCR. The expression of collagen 4α, fibronectin and TGFβ was quantified using the 7300 Real Time PCR System (Applied Biosystems). The assay was performed according to manufacturer instructions using the primers (Assay ID) represented at the table below supplied by Applied Biosystems. Data were normalized to the reference gene TATA box Binding Protein (TBP) and presented as relative mRNA levels compared with Sham PBS 0.5% Eth treatment (Table 1).

[6] = compared to Nx PBS 0.5% Eth treatment, VB-703 4 mg/kg, telmisartan 10 mg/kg
[7] = normalized to TBP, relative to Sham PBS 0.5% Eth, mean±SEM

SMILES	formation of p-AKT and p-ERK induced by MCP1 [1]	chemokine-induced migration of human monocytes [2]	IL-12p40 levels, LPS (TLR4)-stimulated [3]	steatosis (NASH-induced mice; VB-703 4 mg/kg once daily for three weeks)	decrease of liver fibrosis compared to vehicle treated mice (Sirius red) (NASH-induced mice; VB-703 4 mg/kg, telmisartan 10 mg/kg, once daily for three weeks)	expression of IL-10 in livers [4]	expression of IL-12/23p40 in livers [4]	expression of the chemokine MCP-1 in livers [4]	reduction of Collagen IV expression [5, 6]	reduction of TGF-β expression [5, 6]	reduction of fibronectin expression [5, 6]	Collagen IV mRNA expression (relative mRNA level) [5, 7]	TGF-β mRNA expression (relative mRNA level) [5, 7]	fibronectin mRNA expression (relative mRNA level) [5, 7]
CCCCCCCCCCCCCCCCOCC(COP(=O)([O-])OCC[N+](C)(C)C)OCCCCC(=O)O (centres unmarked) [VB-201, 1-hexadecyl-2-(4′-carboxy)butyl-glycero-3-phosphocholine, reference compound]	inhibit	inhibit	inhibit											
CCCCCCCCCCC(CCCCCCCC)COC[C@H](COP(=O)([O-])OCC[n+]1ccccc1)OCCCCC(=O)O (stereo partly drawn) [VB-703, (R)-1-(2′-octyl)dodecyl-2-(4′-carboxy)butyl-sn-glycero-3-phosphoric acid pyridiniumethyl ester]				did not appear to significantly alter	58%	significantly inhibited	significantly inhibited	significantly inhibited	51%	42%	47%	3.7±0.52	4.8±0.32	6.7±0.98
